Source: ChEMBL document CHEMBL1135149, “Syntheses of depsipeptide analogues of the insect neuropeptide proctolin” (2002)
Non-standard residues stand in square brackets, D forms with d. Residues, ends and D or L forms follow the SMILES beside them. *: point of attachment. Hpla = O=C(O)[C@@H](O)Cc1ccc(O)cc1; Hica(2S) = CC(C)C[C@H](O)C(=O)O; X1 = C[C@@H](O)[C@H](O*)C(=O)O

System: Locusta migratoria
Assay: Myotropic effect was assessed in vitro, using an isometric muscle contraction bioassay employing isolated hindguts from the locust Locusta migratoria at 1 uM/L
Assay type: functional, Muscle tissue

H-RYLPT-OH [PROCTOLIN]
Isometric contraction: 100%

CC(C)C[C@H](NC(=O)[C@H](Cc1ccc(O)cc1)NC(=O)[C@@H](N)CCCN=C(N)N)C(=O)N1CCC[C@H]1C(=O)O[C@H](C(=O)O)[C@@H](C)O.O=C(O)C(F)(F)F.O=C(O)C(F)(F)F.O=C(O)C(F)(F)F (H-RYLP-X1)
Isometric contraction: 106%

CC(C)C[C@H](OC(=O)[C@H](Cc1ccc(O)cc1)NC(=O)[C@@H](N)CCCN=C(N)N)C(=O)N1CCC[C@H]1C(=O)O[C@H](C(=O)O)[C@@H](C)O.O=C(O)C(F)(F)F.O=C(O)C(F)(F)F.O=C(O)C(F)(F)F (H-RY[Hica(2S)]P-X1)
Isometric contraction: 27%

CC(C)C[C@H](NC(=O)[C@H](Cc1ccc(O)cc1)OC(=O)[C@@H](N)CCCN=C(N)N)C(=O)N1CCC[C@H]1C(=O)N[C@H](C(=O)O)[C@@H](C)O.O=C(O)C(F)(F)F.O=C(O)C(F)(F)F.O=C(O)C(F)(F)F (H-R[Hpla]LPT-OH)
Isometric contraction: 66%

CC(C)C[C@H](OC(=O)[C@H](Cc1ccc(O)cc1)NC(=O)[C@@H](N)CCCN=C(N)N)C(=O)N1CCC[C@H]1C(=O)N[C@H](C(=O)O)[C@@H](C)O.O=C(O)C(F)(F)F.O=C(O)C(F)(F)F.O=C(O)C(F)(F)F (H-RY[Hica(2S)]PT-OH)
Isometric contraction: 30%
